The values that follow come from US20040006236A1, “Diaminopropionic acid derivatives” (priority 1999, published 2004).

Where two headings read alike, the source gives them in different places.

Assay [1] relates to T lymphocyte proliferation (C57BI/6 spleen cells with irradiated BALB/c spleen cells). The assay can be described thus: Mixed lymphocyte reaction (MLR), one-way. Format: cell-based, mice. The following applies: read-out: MLR IC50. The text has this:
Admixture of murine spleen cells from two different inbred strains of mice induces proliferation of T lymphocytes. The magnitude of T cell proliferation depends on the extent of disparity in the major histocompatibility antigens between the two strains. Splenic T lymphocytes from both strains proliferate due to alloantigen recognition, a process for which the interaction of ICAM-1 on antigen-presenting cells with LFA-1 on lymphocytes is necessary. The ability of antagonists to inhibit T lymphocyte proliferation following recognition of alloantigens was assessed in a one-way MLR, where cells from one strain were irradiated to permit measurement of the proliferative response of cells from the other strain. Spleen cells were washed three times in tissue culture medium (TCM; see below). […] One hundred microliters of serial dilutions of antagonists or TCM were added to the spleen cell mixture. The total volume in each well was 200 μL. TCM was RPMI1640 containing 10% heat-inactivated fetal bovine serum, […] L-glutamine, 100 Units/ml each of penicillin and streptomycin and 5×10^−5 M 2-mercaptoethanol. Dilutions of antagonists were prepared in TCM. Plates were incubated in 5% CO2 for 3 days. On the third day, 0.5 μCi of tritiated thymidine (10 μCi/mL) was added to all the wells. Cells were harvested 6 h later on a 96-well plate harvester and the amount of tritiated thymidine incorporated was assessed in a liquid scintillation counter.

Assay [2] deals with cell-surface Mac-1 adhesion to immobilized fibrinogen (HL-60 cells). The assay can be described thus: Mac-1/Fibrinogen cell-based screening assay. Also noted: species or system human. The settings on record: read-out: Mac-1/Fgn Cell based Assay IC50. How it is done:
Cellular Mac-1/Fibrinogen antagonist activity, defined as the ability to inhibit cell-surface Mac-1 adhesion to immobilized fibrinogen, was quantitated by a cell based assay. Human fibrinogen was coated onto 96 well microtiter plates (1 μg in 100 μL TBS) overnight at 4° C. The plates were then blocked with 150 μL of 10% polyvinyl pyrrolidone (PVP) in TBS for 1 h at 37° C. Plates were washed 3 times (150 μL each) with TBS. […] A ten-fold excess of volume of the same buffer was added and cells were centrifuged. The medium was decanted and cells were resuspended at a concentration of 2×10^6 cells/mL in RPMI/0.05% BSA/0.2 mM MnCl2. Stock solutions (10 mM in DMSO) of test compounds were diluted to 2.5 mM with DMSO. […] Each sample was further diluted 50-fold with RPMI/0.05% BSA/0.2 mM MnCl2. Equal volumes of labeled cells were then added to assay tubes containing diluted compounds. […] Cells were incubated for 10 min at 37° C. with gentle shaking, then dispensed (100 μL per well) onto fibrinogen coated plates and incubated for 30 min at 37° C./5% CO2. Unbound cells were gently washed with TBS two times.

For assay [3], the target named is T1, LFA-1 binding to immobilized ICAM-1 (Homo sapiens, UniProt P05107+P20701).
T1 construct: made in house; host or cells: transfected 293 cells (LFA-1)
The assay can be described thus: LFA-1/ICAM-1 protein-protein assay (solid-phase ELISA). The settings on record: read-out: LFA-1/ICAM-1 Protein-Protein Assay IC50. Put shortly: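 Human 5dICAM-Ig (ICAM-1 extracellular domain–IgG Fc) coated on plates; membrane-bound LFA-1 from transfected 293 cells (280 ng/mL) added with compound in Mn2+-containing HEPES buffer pH 7.2, 2 h at 37° C. Bound LFA-1 detected via anti-β2 antibody and HRP/TMB at 450 nm; IC50s determined.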

Where [4] appears, read: Homo sapiens, HL-60, HL-60 cells.

T1 sequence (P20701 26-1170): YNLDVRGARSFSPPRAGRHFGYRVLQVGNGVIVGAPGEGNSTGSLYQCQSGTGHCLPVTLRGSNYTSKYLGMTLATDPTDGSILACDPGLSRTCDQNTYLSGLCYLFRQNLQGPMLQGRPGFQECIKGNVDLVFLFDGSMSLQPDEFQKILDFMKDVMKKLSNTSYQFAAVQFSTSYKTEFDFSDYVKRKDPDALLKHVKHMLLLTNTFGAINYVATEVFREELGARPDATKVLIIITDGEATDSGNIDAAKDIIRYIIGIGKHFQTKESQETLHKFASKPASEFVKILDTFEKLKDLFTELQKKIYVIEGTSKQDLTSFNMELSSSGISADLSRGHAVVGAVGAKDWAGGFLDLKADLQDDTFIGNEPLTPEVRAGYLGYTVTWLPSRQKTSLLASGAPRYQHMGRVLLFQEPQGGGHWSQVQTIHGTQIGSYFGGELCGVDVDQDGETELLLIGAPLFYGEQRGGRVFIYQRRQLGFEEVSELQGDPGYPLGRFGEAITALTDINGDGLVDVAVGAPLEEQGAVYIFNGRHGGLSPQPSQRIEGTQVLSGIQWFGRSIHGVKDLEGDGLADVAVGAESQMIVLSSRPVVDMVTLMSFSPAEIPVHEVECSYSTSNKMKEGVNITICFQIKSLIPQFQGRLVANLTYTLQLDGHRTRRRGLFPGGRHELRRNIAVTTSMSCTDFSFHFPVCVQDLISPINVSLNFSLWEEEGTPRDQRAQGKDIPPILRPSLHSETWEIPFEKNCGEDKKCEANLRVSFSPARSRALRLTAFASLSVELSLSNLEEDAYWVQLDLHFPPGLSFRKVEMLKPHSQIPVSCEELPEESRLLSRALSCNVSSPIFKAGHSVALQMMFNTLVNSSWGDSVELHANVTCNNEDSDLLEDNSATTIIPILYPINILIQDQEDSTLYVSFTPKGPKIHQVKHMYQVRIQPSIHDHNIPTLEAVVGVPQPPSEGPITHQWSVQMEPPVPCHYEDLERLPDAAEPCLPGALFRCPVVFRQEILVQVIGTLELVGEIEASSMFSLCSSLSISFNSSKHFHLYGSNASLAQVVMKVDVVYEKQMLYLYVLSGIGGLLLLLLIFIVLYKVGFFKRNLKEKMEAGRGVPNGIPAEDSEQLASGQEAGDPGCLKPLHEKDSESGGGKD
T1 sequence (P05107 23-769): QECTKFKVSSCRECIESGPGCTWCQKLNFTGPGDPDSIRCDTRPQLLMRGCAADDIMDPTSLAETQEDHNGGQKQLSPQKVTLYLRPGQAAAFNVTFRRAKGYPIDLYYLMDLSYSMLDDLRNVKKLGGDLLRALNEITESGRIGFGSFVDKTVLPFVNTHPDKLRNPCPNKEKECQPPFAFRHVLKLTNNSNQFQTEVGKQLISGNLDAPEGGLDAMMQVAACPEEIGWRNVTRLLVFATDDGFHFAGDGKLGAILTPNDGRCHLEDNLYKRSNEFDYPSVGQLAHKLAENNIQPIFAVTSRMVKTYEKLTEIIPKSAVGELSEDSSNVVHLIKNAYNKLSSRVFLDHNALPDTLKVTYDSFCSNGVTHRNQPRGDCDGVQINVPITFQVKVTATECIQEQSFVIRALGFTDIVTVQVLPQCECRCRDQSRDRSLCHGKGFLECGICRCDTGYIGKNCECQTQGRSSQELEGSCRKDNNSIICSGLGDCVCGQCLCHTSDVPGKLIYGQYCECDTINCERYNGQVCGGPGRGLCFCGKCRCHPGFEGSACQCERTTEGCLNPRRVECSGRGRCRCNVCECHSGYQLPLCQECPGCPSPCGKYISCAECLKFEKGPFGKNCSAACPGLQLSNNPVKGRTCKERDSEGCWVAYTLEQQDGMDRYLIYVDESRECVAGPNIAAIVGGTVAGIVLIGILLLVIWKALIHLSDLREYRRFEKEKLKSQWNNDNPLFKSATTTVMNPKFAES

With `O=C(NCc1cccc(O)c1)c1ccc(C(=O)N[C@@H](CNC(=O)c2cc(Br)cc(Br)c2)C(=O)O)c(Cl)c1` [Example 228, N-[2-chloro-4-[[[(3-hydroxyphenyl)methyl]amino]carbonyl]benzoyl]-3-(3,5-dibromobenzoyl)amino-L-alanine], the IC50 in assay [1] (Mus musculus, T-lymphocyte) worked out at 5000 nM; in assay [2] (setting [4]) it was 149 nM; in assay [3] it was 7.1 nM.
As to `N[C@@H](COCc1ccccc1)C(=O)NC[C@H](NC(=O)c1ccc(C(=O)NCc2cccc(O)c2)cc1Cl)C(=O)O` [Example 293], the IC50 stood at 13500 nM in assay [1] (Mus musculus, T-lymphocyte); 290 nM in assay [2] (setting [4]); 6.3 nM in assay [3].
With `O=C(NCc1cccc(O)c1)c1cc(Cl)c(C(=O)N[C@@H](CNC(=O)c2cccc(Cl)c2)C(=O)O)c(Cl)c1` [Example 348, 3-[(3-chlorobenzoyl)amino]-N-[2,6-dichloro-4-[[[(3-hydroxyphenyl)methyl]amino]carbonyl]benzoyl]-L-alanine], the IC50 worked out at 173 nM in assay [1] (Mus musculus, T-lymphocyte); 19.8 nM in assay [2] (setting [4]); 1.3 nM in assay [3].
For `N[C@H]1Cc2ccccc2CN(CC(=O)NC[C@H](NC(=O)c2ccc(C(=O)NCc3cccc(O)c3)cc2Cl)C(=O)O)C1=O` [Example 295], the IC50 turned out to be 1620 nM in assay [1] (Mus musculus, T-lymphocyte); 89 nM in assay [2] (setting [4]); 1.9 nM in assay [3].
As to `CC(C)(N)C(=O)NC[C@H](NC(=O)c1ccc(C(=O)NCc2cccc(O)c2)cc1Cl)C(=O)O` [Example 282], the IC50 in assay [1] (Mus musculus, T-lymphocyte) was determined as 1050 nM; in assay [2] (setting [4]), 162 nM; in assay [3], 4.6 nM.
The corresponding values for `Cc1cc(C(=O)N[C@H](C)c2cccc3ccccc23)ccc1C(=O)N[C@@H](CNC(=O)c1cccs1)C(=O)O` [Example 325] are 965 nM, 59 nM and 2.6 nM.
For `O=C(NCc1cccc(O)c1)c1cc(Cl)c(C(=O)N[C@@H](CNC(=O)c2cc(Br)c(Br)s2)C(=O)O)c(Cl)c1` [Example 356], the IC50 in assay [1] (Mus musculus, T-lymphocyte) worked out at 1760 nM; in assay [2] (setting [4]), 81 nM; in assay [3] it was 3.4 nM.
Consider `N[C@@H](Cc1ccc(OCc2c(Cl)cccc2Cl)cc1)C(=O)NC[C@H](NC(=O)c1ccc(C(=O)NCc2cccc(O)c2)cc1Cl)C(=O)O` [Example 273], for which the IC50 in assay [1] (Mus musculus, T-lymphocyte) was 12000 nM; in assay [2] (setting [4]), 1740 nM; in assay [3], 7.4 nM.
For `NC1(C(=O)NC[C@H](NC(=O)c2ccc(C(=O)NCc3cccc(O)c3)cc2Cl)C(=O)O)CCCCC1` [Example 284], the IC50 in assay [1] (Mus musculus, T-lymphocyte) worked out at 1130 nM; in assay [2] (setting [4]), 198 nM; in assay [3] it was 5.7 nM.
As to `Cc1cccc(C(=O)NC[C@H](NC(=O)c2c(Cl)cc(C(=O)NCc3cccc(O)c3)cc2Cl)C(=O)O)c1` [Example 352], the IC50 in assay [1] (Mus musculus, T-lymphocyte) is 91 nM; in assay [2] (setting [4]) it was 28 nM; in assay [3], 1.2 nM.
The corresponding values for `N[C@H](Cc1c[nH]c2ccccc12)C(=O)NC[C@H](NC(=O)c1ccc(C(=O)NCc2cccc(O)c2)cc1Cl)C(=O)O` [Example 276] are 7250 nM, 235 nM and 6.9 nM.
`CNCC(=O)NC[C@H](NC(=O)c1ccc(C(=O)NCc2cccc(O)c2)cc1Cl)C(=O)O` [Example 283]: the IC50 in assay [1] (Mus musculus, T-lymphocyte) is 1500 nM; in assay [2] (setting [4]) it was 166 nM; in assay [3] it was 3.1 nM.
As for `C[C@H](N)C(=O)NC[C@H](NC(=O)c1ccc(C(=O)NCc2cccc(O)c2)cc1Cl)C(=O)O` [Example 280], the IC50 is 4200 nM in assay [1] (Mus musculus, T-lymphocyte); 77 nM in assay [2] (HL-60 cells); 3.1 nM in assay [3].
For the compound `C[C@H](N)C(=O)NC[C@H](NC(=O)c1ccc(C(=O)NCc2cccc(O)c2)cc1Cl)C(=O)O` [Example 281], the IC50 in assay [1] turned out to be 4450 nM; in assay [2] (HL-60 cells) it was 291 nM.
`O=C(NCc1cccc(O)c1)c1ccc(C(=O)N[C@@H](CNC(=O)[C@@H]2CSCN2)C(=O)O)c(Cl)c1` [Example 267]: the IC50 in assay [1] (Mus musculus, T-lymphocyte) turned out to be 490 nM; in assay [2] (setting [4]), 71 nM; in assay [3], 2.9 nM.
For `O=C(NCc1cccc(O)c1)c1ccc(C(=O)N[C@@H](CNC(=O)c2cccs2)C(=O)O)c(Br)c1` [Example 328, N-[2-bromo-4-[[[(3-hydroxyphenyl)methyl]amino]carbonyl]benzoyl]-3-(thiophene-2-carbonyl)amino-L-alanine], the IC50 came out at 160 nM in assay [1] (Mus musculus, T-lymphocyte); 28 nM in assay [2] (setting [4]); 1.3 nM in assay [3].
In the case of `CN[C@@H](C)C(=O)NC[C@H](NC(=O)c1ccc(C(=O)NCc2cccc(O)c2)cc1Cl)C(=O)O` [Example 279], the IC50 in assay [1] (Mus musculus, T-lymphocyte) was found to be 2200 nM; in assay [2] (setting [4]), 371 nM; in assay [3] it was 8 nM.
The corresponding values for `O=C(NCc1cccc(O)c1)c1ccc(C(=O)N[C@@H](CNC(=O)c2cccs2)C(=O)O)c(F)c1` [Example 331] are 710 nM, 68 nM and 1.1 nM.
The corresponding values for `CC(C)C[C@H](N)C(=O)NC[C@H](NC(=O)c1ccc(C(=O)NCc2cccc(O)c2)cc1Cl)C(=O)O` [Example 277] are 8700 nM, 282 nM and 4.3 nM.
Regarding `NC[C@H]1CC[C@H](C(=O)NC[C@H](NC(=O)c2ccc(C(=O)NCc3cccc(O)c3)cc2Cl)C(=O)O)CC1` [Example 286], the IC50 in assay [1] (Mus musculus, T-lymphocyte) stood at 1520 nM; in assay [2] (setting [4]) it was 74 nM; in assay [3], 4.1 nM.
The corresponding values for `NCCCCCCCCCCC(=O)NC[C@H](NC(=O)c1ccc(C(=O)NCc2cccc(O)c2)cc1Cl)C(=O)O` [Example 270] are 4750 nM, 357 nM and 7.9 nM.
For the compound `O=C(NC[C@H](NC(=O)c1ccc(C(O)CCc2cccc(O)c2)cc1Cl)C(=O)O)c1cccs1` (mixture of isomers) [Example 320], the IC50 amounted to 145 nM in assay [1] (Mus musculus, T-lymphocyte); 64 nM in assay [2] (setting [4]); 1 nM in assay [3].
In the same order, the values of `Cc1ccsc1C(=O)NC[C@H](NC(=O)c1c(Cl)cc(C(=O)NCc2cccc(O)c2)cc1Cl)C(=O)O` [Example 357] are 21 nM, 23 nM and 0.5 nM.
In the same order, the values of `CCCC[C@H](N)C(=O)NC[C@H](NC(=O)c1ccc(C(=O)NCc2cccc(O)c2)cc1Cl)C(=O)O` [Example 278] are 13500 nM, 311 nM and 8.5 nM.
For `O=C(NCc1cccc(O)c1)c1cc(Cl)c(C(=O)N[C@@H](CNC(=O)c2sccc2Cl)C(=O)O)c(Cl)c1` [Example 355], the IC50 in assay [1] (Mus musculus, T-lymphocyte) amounted to 86 nM; in assay [2] (setting [4]), 17.7 nM; in assay [3], 0.9 nM.
Take `N[C@@H](Cc1ccc([N+](=O)[O-])cc1)C(=O)NC[C@H](NC(=O)c1ccc(C(=O)NCc2cccc(O)c2)cc1Cl)C(=O)O` [Example 271]: the IC50 in assay [1] (Mus musculus, T-lymphocyte) worked out at 4100 nM; in assay [2] (setting [4]), 547 nM; in assay [3], 3.8 nM.
For the compound `O=C(NCc1cccc(O)c1)c1ccc(C(=O)N[C@@H](CNC(=O)c2cc(F)cc(C(F)(F)F)c2)C(=O)O)c(Cl)c1` [Example 260], the IC50 in assay [1] (Mus musculus, T-lymphocyte) was found to be 1950 nM; in assay [2] (setting [4]), 330 nM; in assay [3], 5.4 nM.
Regarding `Cc1cc(C(=O)NCc2cccc(O)c2)ccc1C(=O)N[C@@H](CNC(=O)c1ccccc1)C(=O)O` [Example 324], the IC50 in assay [1] (Mus musculus, T-lymphocyte) was 460 nM; in assay [2] (setting [4]), 32 nM; in assay [3] it was 1.5 nM.
For the compound `Cc1cc(C(=O)N[C@H](C)c2cccc3ccccc23)ccc1C(=O)N[C@@H](CNC(=O)c1ccccc1)C(=O)O` [Example 326], the IC50 turned out to be 1500 nM in assay [1] (Mus musculus, T-lymphocyte); 93 nM in assay [2] (setting [4]); 4.1 nM in assay [3].
With `N[C@H](C(=O)NC[C@H](NC(=O)c1ccc(C(=O)NCc2cccc(O)c2)cc1Cl)C(=O)O)c1ccccc1` [Example 285], the IC50 worked out at 3100 nM in assay [1] (Mus musculus, T-lymphocyte); 135 nM in assay [2] (setting [4]); 3.1 nM in assay [3].
